According to PubChem BioAssay (NCI):
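How tested: cells in 96-well plates exposed to compound for 48 hours at five concentrations. The concentration for full growth arrest is given as TGI.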

Legend:
Experiment in all cases: NCI tumour cell line growth inhibition, 48 h
HCT-15 colon = test system: HCT-15 colon
UO-31 renal = test system: UO-31 renal
HOP-62 NSCLC = test system: HOP-62 NSCLC
NCI-H23 lung = test system: NCI-H23 lung
OVCAR-5 ovarian = test system: OVCAR-5 ovarian
OVCAR-3 ovarian = test system: OVCAR-3 ovarian
SN12C renal = test system: SN12C renal
HT29 colon = test system: HT29 colon
DU-145 prostate = test system: DU-145 prostate
SF-539 CNS = test system: SF-539 CNS
EKVX NSCLC = test system: EKVX NSCLC
SNB-19 CNS = test system: SNB-19 CNS
SK-MEL-2 melanoma = test system: SK-MEL-2 melanoma
HL-60(TB) leukemia = test system: HL-60(TB) leukemia
HOP-92 NSCLC = test system: HOP-92 NSCLC
IGROV1 ovarian = test system: IGROV1 ovarian
SK-OV-3 ovarian = test system: SK-OV-3 ovarian
PC-3 prostate = test system: PC-3 prostate
RXF 393 renal = test system: RXF 393 renal
MDA-MB-231 breast = test system: MDA-MB-231 breast
SK-MEL-28 melanoma = test system: SK-MEL-28 melanoma
MOLT-4 leukemia = test system: MOLT-4 leukemia
OVCAR-8 ovarian = test system: OVCAR-8 ovarian
SW-620 colon = test system: SW-620 colon
MALME-3M melanoma = test system: MALME-3M melanoma
COLO 205 colon = test system: COLO 205 colon
KM12 colon = test system: KM12 colon
U251 CNS = test system: U251 CNS
M14 melanoma = test system: M14 melanoma
UACC-257 melanoma = test system: UACC-257 melanoma
A498 renal = test system: A498 renal
UACC-62 melanoma = test system: UACC-62 melanoma
MDA-N = test system: MDA-N
OVCAR-4 ovarian = test system: OVCAR-4 ovarian
NCI-H460 lung = test system: NCI-H460 lung
SF-295 CNS = test system: SF-295 CNS
ACHN renal = test system: ACHN renal
CAKI-1 renal = test system: CAKI-1 renal
NCI-H226 lung = test system: NCI-H226 lung
MDA-MB-435 = test system: MDA-MB-435
HCT-116 colon = test system: HCT-116 colon
SK-MEL-5 melanoma = test system: SK-MEL-5 melanoma
SR leukemia = test system: SR leukemia
SF-268 CNS = test system: SF-268 CNS
LOX IMVI melanoma = test system: LOX IMVI melanoma
MCF7 breast = test system: MCF7 breast
786-0 renal = test system: 786-0 renal
HCC-2998 colon = test system: HCC-2998 colon
NCI/ADR-RES ovarian = test system: NCI/ADR-RES ovarian
CCRF-CEM leukemia = test system: CCRF-CEM leukemia
A549 NSCLC = test system: A549 NSCLC
K-562 leukemia = test system: K-562 leukemia
NCI-H522 lung = test system: NCI-H522 lung
T-47D breast = test system: T-47D breast
TK-10 renal = test system: TK-10 renal
HS 578T breast = test system: HS 578T breast

CC(=O)C(=C(I)I)c1ccccc1
TGI (HCT-15 colon): > 100 µM
TGI (UO-31 renal): 33.8 µM
TGI (HOP-62 NSCLC): 38.7 µM
TGI (NCI-H23 lung): 36.2 µM
TGI (OVCAR-5 ovarian): 45.7 µM
TGI (OVCAR-3 ovarian): 30.3 µM
TGI (SN12C renal): 28.4 µM
TGI (HT29 colon): 35.2 µM
TGI (DU-145 prostate): 60.4 µM
TGI (SF-539 CNS): 38.9 µM
TGI (EKVX NSCLC): 49.3 µM
TGI (SNB-19 CNS): 37.2 µM
TGI (SK-MEL-2 melanoma): 53.6 µM
TGI (HL-60(TB) leukemia): 48.2 µM
TGI (HOP-92 NSCLC): 64.5 µM
TGI (IGROV1 ovarian): 54.7 µM
TGI (SK-OV-3 ovarian): > 100 µM
TGI (PC-3 prostate): 83.8 µM
TGI (RXF 393 renal): 46.4 µM
TGI (MDA-MB-231 breast): 51.4 µM
TGI (SK-MEL-28 melanoma): 38.7 µM
TGI (MOLT-4 leukemia): 43.2 µM
TGI (OVCAR-8 ovarian): 39.6 µM
TGI (SW-620 colon): 38.7 µM
TGI (MALME-3M melanoma): 25.6 µM
TGI (COLO 205 colon): 28.9 µM
TGI (KM12 colon): 41.4 µM
TGI (U251 CNS): 35.7 µM
TGI (M14 melanoma): 31.6 µM
TGI (UACC-257 melanoma): 32.7 µM
TGI (A498 renal): 40.7 µM
TGI (UACC-62 melanoma): 51.4 µM
TGI (MDA-N): 39.9 µM
TGI (OVCAR-4 ovarian): 31.3 µM
TGI (NCI-H460 lung): > 100 µM
TGI (SF-295 CNS): 50.1 µM
TGI (ACHN renal): 35.2 µM
TGI (CAKI-1 renal): 3.66 µM
TGI (NCI-H226 lung): 27.3 µM
TGI (MDA-MB-435): 29.9 µM
TGI (HCT-116 colon): 29.4 µM
TGI (SK-MEL-5 melanoma): 28.5 µM
TGI (SR leukemia): 35.5 µM
TGI (SF-268 CNS): 52.6 µM
TGI (LOX IMVI melanoma): 49.1 µM
TGI (MCF7 breast): 46.8 µM
TGI (786-0 renal): 40.3 µM
TGI (HCC-2998 colon): 72 µM
TGI (NCI/ADR-RES ovarian): 49 µM
TGI (CCRF-CEM leukemia): 31.7 µM
TGI (A549 NSCLC): 56.2 µM
TGI (K-562 leukemia): 53.5 µM
TGI (NCI-H522 lung): 31 µM
TGI (T-47D breast): 50.4 µM

CC(C)n1c(=O)c2nn3c(=O)n(C(C)C)c(=O)c3nn2c1=O
TGI (HCT-15 colon): > 100 µM
TGI (HOP-62 NSCLC): > 100 µM
TGI (NCI-H23 lung): > 100 µM
TGI (OVCAR-5 ovarian): > 100 µM
TGI (OVCAR-3 ovarian): > 100 µM
TGI (SN12C renal): > 100 µM
TGI (HT29 colon): > 100 µM
TGI (DU-145 prostate): > 100 µM
TGI (SF-539 CNS): > 100 µM
TGI (EKVX NSCLC): > 100 µM
TGI (SNB-19 CNS): > 100 µM
TGI (SK-MEL-2 melanoma): > 100 µM
TGI (HL-60(TB) leukemia): > 100 µM
TGI (HOP-92 NSCLC): > 100 µM
TGI (IGROV1 ovarian): > 100 µM
TGI (SK-OV-3 ovarian): > 100 µM
TGI (PC-3 prostate): > 100 µM
TGI (RXF 393 renal): > 100 µM
TGI (MDA-MB-231 breast): > 100 µM
TGI (SK-MEL-28 melanoma): > 100 µM
TGI (MOLT-4 leukemia): > 100 µM
TGI (OVCAR-8 ovarian): > 100 µM
TGI (SW-620 colon): > 100 µM
TGI (MALME-3M melanoma): > 100 µM
TGI (COLO 205 colon): > 100 µM
TGI (KM12 colon): > 100 µM
TGI (M14 melanoma): > 100 µM
TGI (UACC-257 melanoma): > 100 µM
TGI (A498 renal): > 100 µM
TGI (UACC-62 melanoma): > 100 µM
TGI (MDA-N): > 100 µM
TGI (OVCAR-4 ovarian): > 100 µM
TGI (NCI-H460 lung): > 100 µM
TGI (SF-295 CNS): > 100 µM
TGI (ACHN renal): > 100 µM
TGI (CAKI-1 renal): > 100 µM
TGI (NCI-H226 lung): > 100 µM
TGI (MDA-MB-435): > 100 µM
TGI (HCT-116 colon): > 100 µM
TGI (SK-MEL-5 melanoma): > 100 µM
TGI (SR leukemia): > 100 µM
TGI (SF-268 CNS): > 100 µM
TGI (LOX IMVI melanoma): > 100 µM
TGI (TK-10 renal): > 100 µM
TGI (MCF7 breast): > 100 µM
TGI (786-0 renal): > 100 µM
TGI (HCC-2998 colon): > 100 µM
TGI (NCI/ADR-RES ovarian): > 100 µM
TGI (CCRF-CEM leukemia): > 100 µM
TGI (A549 NSCLC): > 100 µM
TGI (T-47D breast): > 100 µM
TGI (HS 578T breast): > 100 µM
